Tested on: glycation of the extra-cellular matrix (ECM)
Test: Glycation of the extra-cellular matrix (ECM) of fibroblasts: EFA content by dot blot and densitometric analysis
Assay type: cell-based, human
Conditions: 1 mg/ml
Protocol: Human normal fibroblasts were cultured at 37° C. in the presence of DMEM (Invitrogen) containing 10% of fetal bovine serum (Invitrogen) and 50 UI/ml of penicillin, 50 μg/ml of […] (Invitrogen) and 2 mM of glutamin. Collagen synthesis was stimulated by culturing cells in the presence of vitamin C at 20 μg/ml (Sigma) for 5 days. The cells were then washed with PBS and lysed by successive cycles of freezing and thawing.
Except for the controls, cell layers had previously been treated with Butea frondosa (at 0.02; 0.1 and 0.5%), which was prepared according to Example 1 or with a reference compound: aminoguanidin at 1 mg/ml (Sigma). The cells were then incubated in the presence of 0.1 mg/ml glucose. Each of the treatments was performed, in triplicate, for 15 days at 37° C. with 5% CO2.
At the end of the incubation period, ECM proteins (essentially collagen) were extracted, and the samples were then transferred onto a nitrocellulose membrane (Hybrond, ECL, Amersham) by means of a Milliblot dotblot (Millipore). All the controls were carried out in order to assess the specificity of the final response. No interference was observed. […]
The following table illustrates the effect of this treatment on glucose incorporation into macromolecules synthetised by fibroblasts. The presence of EFA was measured by dot blot analysis and densitometric analysis.

Question: Which results are given for `N=C(N)NN` [Aminoguanidin, aminoguanidin]?
Answer: Inhibition of EFA content compared to the control: 35%; EFA content relative to control (15 days, 0.1 mg/ml glucose, control 100%): 65%
